Reference: patent US12286405B2, “Scalable synthesis of dual-target inhibitor of cannabinoid-1 receptor and inducible nitric oxide synthase” (THE UNITED STATES OF AMERICA, AS REPRESENTED BY THE …, priority 2019, dated 2025)
≈ marks a conversion by molar mass, not a printed value.

Key:
CB1R = CB1R (Homo sapiens, UniProt P21554); conditions: in vivo; mediated by the CB1R antagonism; cited from earlier work
[1] = system: animal models of fibrosis; conditions: mediated by iNOS inhibition and CB1R antagonism; cited from earlier work
[2] = solubility of rac-1 in organic solvent (dichloromethane); assay type: physicochemical; conditions: organic solvent or mixture
Source text: To overcome this obstacle, the present inventors discovered an enantioselective approach to (S,1E,NE)-N-(1-aminoethylidene)-3-(4-chlorophenyl)-4-phenyl-N′-((4-(trifluoromethyl)phenyl)sulfonyl)-4,5-dihydro-1H-pyrazole-1-carboximidamide (S)-1 in high optical purity.

Chain of CB1R (P21554 whole entry): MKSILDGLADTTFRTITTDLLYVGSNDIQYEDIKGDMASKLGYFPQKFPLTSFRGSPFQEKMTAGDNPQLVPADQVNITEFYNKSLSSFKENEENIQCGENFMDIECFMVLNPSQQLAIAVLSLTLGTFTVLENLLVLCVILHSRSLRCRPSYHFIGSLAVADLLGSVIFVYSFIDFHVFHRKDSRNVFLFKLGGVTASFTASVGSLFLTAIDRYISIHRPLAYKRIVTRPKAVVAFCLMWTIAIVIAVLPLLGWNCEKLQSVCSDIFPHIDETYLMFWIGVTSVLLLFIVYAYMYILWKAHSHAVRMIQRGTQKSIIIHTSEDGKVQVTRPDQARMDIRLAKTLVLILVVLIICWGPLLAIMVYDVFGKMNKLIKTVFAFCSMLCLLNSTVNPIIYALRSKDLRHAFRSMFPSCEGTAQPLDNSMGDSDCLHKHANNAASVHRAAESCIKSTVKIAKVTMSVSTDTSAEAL

Row | solubility [2] [µg/mL] | SMILES | food intake (CB1R) | antifibrotic effect [1]
1 |  | C/C(N)=N\C(=N\S(=O)(=O)c1ccc(C(F)(F)F)cc1)N1C[C@H](c2ccccc2)C(c2ccc(Cl)cc2)=N1 [(S)-1, (S,1E,NE)-N-(1-aminoethylidene)-3-(4-chlorophenyl)-4-phenyl-N′-((4-(trifluoromethyl)phenyl)sulfonyl)-4,5-dihydro-1H-pyrazole-1-carboximidamide] | reduction of food intake | antifibrotic effect
2 | ~1000 (≈ 1820 µM) | C/C(N)=N\C(=N/S(=O)(=O)c1ccc(C(F)(F)F)cc1)N1CC(c2ccccc2)C(c2ccc(Cl)cc2)=N1 (racemic) [rac-1, (1E,NE)-N-(1-aminoethylidene)-3-(4-chlorophenyl)-4-phenyl-N′-((4-(trifluoromethyl)phenyl)sulfonyl)-4,5-dihydro-1H-pyrazole-1-carboximidamide] |  | 
